Columns and labels:
[1] = tested on: colorectal (HCT116), breast (MCF-7) and non-small cell lung (H1299, A549, H358 and H460) cell line models; assay: Colony forming assay; assay type: cell-based; conditions: FUdR between 0.5 and 2.5 μmol/L; all cell lines evaluated
Method: Colony forming assay showing the ability of colon (SW620, HCT116), non-small cell lung (A549, H460, H1299 and H358) and breast (MCF7) cancer cells to survive and proliferate following transient 24 hour exposure to test compounds, FUdR and combinations are determined. Specifically, cells are seeded at densities between 50 and 100 cells/well in 24-well plates. Twenty-four hours later, cells are treated with increasing concentrations of a rtest compound, a fixed dose of FUdR and combinations of these. After 24 hours, drug is removed, cells are rinsed and allowed to outgrow for 10-14 days. At the conclusion of the outgrowth, cells are fixed in 60% ice cold methanol and stained with 0.1% crystal violet, scanned and counted. Data is presented as percentage of untreated controls (mean±SD). Fraction affected and combination indexes are calculated according to the method of Chou and Talalay where <1 is indicative of a synergistic drug interaction.
Colony forming assays are performed to evaluate the effectiveness of test compounds alone and in combination with the fluoropyrimidine thymidylate synthase (TS) inhibitor fluorodeoxyuridine (FUdR) at reducing cancer cell viability in colorectal (HCT116), breast (MCF-7) and non-small cell lung (H1299, A549, H358 and H460) cell line models. […]

[2] = tested on: colorectal (HCT116 and SW620) cell line models; assay: MTS growth inhibition assay; assay type: cell-based; conditions: 5-FU between 0 and 100 μmol/L; both colorectal cancer cell lines (HCT116 and SW620)
Method: The Cell Titer AQueous MTS assay (Promega) is carried out according to the manufacturers guidelines. […] Fraction affected (FA) is calculated from the percent growth inhibition: FA=(100−% growth inhibition)/100.
Test compounds are evaluated for their antitumor activity in colorectal cancer cells using the MTS growth inhibition assay. HCT116 and SW620 cells are exposed to increasing concentrations of each agent for 72 hours and growth inhibition is directly compared to vehicle-treated controls. The NSCLC cell lines A549 and H1299 are exposed to increasing concentrations of each agent for 72 hours and growth inhibition is directly compared to vehicle-treated controls.
Simultaneous treatment with increasing concentrations of 5-FU and a test compound at fixed concentrations of 25 μmol/L is determined.

| SMILES | colonies formed [1] | growth inhibition [2] |
| --- | --- | --- |
| O=c1[nH]c(=O)n([C@H]2C[C@H](O)[C@@H](CO)O2)cc1F [FUdR, fluorodeoxyuridine] | dose-dependent decreases in colonies formed |  |
| O=c1[nH]cc(F)c(=O)[nH]1 [5-FU, 5-fluorouracil] |  | dose-dependent increases in growth inhibition |

Source: US12098133B2, “Hydantoin containing deoxyuridine triphosphatase inhibitors” (CV6 Therapeutics (NI) Limited, priority 2015, dated 2024)
